Measured values reported in patent publication US9839681B1, “Size tunable microbial mimetics for immunotherapy of cancer” (priority 2017, dated 2017).

Tested on: Human peripheral blood mononuclear cells (PBMCs)
Assay: Induced cytokine secretion by PBMCs exposed for 24 hours, ELISA
Format: cell-based
Conditions: 25 μg/mL, 24 hours, 300,000 PBMCs per well
Protocol: FIG. 10 is bar graph showing the induced secretion of IL-6 by PBMCs exposed to PolyIC, RNA248, DNA4, DNA10, PolyIC complexed with SEQ. ID NO. 4 (CAL2), RNA248 complexed with SEQ. ID NO. 4, DNA4 complexed with SEQ. ID NO. 4, DNA10 complexed with SEQ. ID NO. 4, DNA4 and RNA248 complexed with SEQ. ID NO. 4, Pam(2)CSK4-conjugated SEQ. ID NO. 4 complexed with DNA4 and SEQ. ID NO. 4 alone. Each well contained ˜300,000 fresh PBMCs in a total volume of 100 μL of RPMI medium. Solutions of SEQ. ID NO. 4, PolyIC, DNA4, DNA10, Pam(2)CSK4-conjugated SEQ. ID NO. 4 were all pre-mixed to concentrations of 50 ug/mL (for each peptide reagent) and then added to wells in volumes of 100 uL, such that each well contained a 200 uL volume of PBMCs and reagents. Wells were run in triplicate and the mean value is indicated.
A series of in vitro experiments was conducted to characterize the immune-stimulating properties of the MM and their sub-components. Human peripheral blood mononuclear cells (PBMCs) were exposed to a MM containing SEQ. ID NO. 4 and its individual molecular sub-components for 24 hours. For reference, the PBMCs were separately exposed to PolyIC. After this time, the induced secretion of following cytokines by PBMCs was measured: interleukin-6 (IL-6), interleukin-10 (IL-10), interleukin-12 (IL-12), interleukin-15 (IL-15), tumor necrosis factor alpha (TNF-alpha), interferon-alpha (IFN-alpha), and interferon-gamma (IFN-gamma). Experiments were conducted as follows. 150 mL of blood was supplied by a human volunteer and PBMCs were isolated by Ficoll-Paque gradient centrifugation immediately after venipuncture. PBMCs were incubated for 24 hours at 37° C./5% CO2 in 96-well plates, with 300,000 PBMCs per well in a 200 μL medium containing 49% RPMI-1640/49% PBS/1% L-glutamine/1% penicillin-streptomycin and the components in Table 3 at a concentration of 25 μg/mL. All cytokines were measured in triplicate.
After 24 hours, the supernatant from each well was isolated using centrifugation at 3000 g and immediately thereafter cytokines were measured using ELISA kits from Genway Biotech (San Diego, Calif.) and Origene (Rockville, Md.). Per ELISA kit instructions, 100 μL of supernatant was used for each readout. The results are provided in FIGS. 10-16, where the mean of each measurement is provided. (In no instance did the standard deviation exceed 30%.)

Substance | cytokine secretion overall (seven cytokines measured) | induced secretion of IFN-alpha | induced secretion of IL-12 | induced secretion of IL-15
RRHRKRRLSTCMLGTYTQDFNKFHTFPQTAI (Linker Sequence + synthetic peptide corresponding to calcitonin) [CAL2] | very minimal cytokine secretion |  |  | 
5′-TCGTCGGTTTCGGCGCGCGCCG-3′ (DNA, all phosphorothioate, methylation of C not given here) [DNA4] | minimal cytokine secretion | somewhat immunogenic | does not induce secretion of high amounts | does not induce secretion of high amounts
5′-TTCGGCGCGCGCGCGCGCGCGCCGTT-3′ (DNA, all phosphorothioate, methylation of C not given here) [DNA10] | minimal cytokine secretion |  |  | 
5′-guuggugguugugugagcgu-3′ (GUUGGUGGUUGUGUGAGCGU; listed as RNA, chemistry not fully specified) [RNA248] | minimal cytokine secretion |  |  | 
